Laboratory results taken from patent US9795596B2, “Pharmaceutical diagnostic” (Novartis AG, priority 2012, dated 2017).

Key:
Type in all cases: biochemical, bovine
PI3Kα Q859A mutant [1] = target: T1, PI3Kα Q859A mutant (Bos taurus, UniProt P32871, Q859A); test: Enzymatic HTRF assay, PI3Kα Q859A mutant
T1 construct: His; made in house; host or cells: Sf9 insect cells (baculovirus co-infection)
Experimental: (§1) Mutagenesis to generate PI3Kα (p110α) mutant Q859A is performed with the QuikChange II Site-Directed Mutagenesis kit (Stratagene (cat. no 200523) and the oligonucleotides
(§2) The Phosphoinositide 3-kinase (PI3-Kinase or PI3K) Homogenous Time-Resolved (HTRF®) assay kit is purchased from Upstate (now Millipore Corporation, Billerica, Mass., USA). PIP2 and PiP3 is purchased from Avanti Polar Lipids (Alabaster, Ala., USA), microplates from Greiner (Frickenhausen, Germany; Catalog No. 781207). All other reagents are purchased from Sigma (St Louis, Mo., USA).
(§3) The enzymatic Homogenous Time-Resolved Fluorescense (HTRF®) assay (from Upstate (now Millipore Corporation, Billerica, Mass., USA) is performed essentially as described by Sugita et al. (2008), Biochem. Biophys. Res. Commun 377(3):941-5. PI3Kα (0.25-1.5 ng) is incubated for 60 minutes at room temperature in 20 μl buffer containing 10 mM MgCl2, 30 μM ATP, 20 μM 1,2-dioctanoyl-sn-glycero-3-phospho-(1′-myo-inositol-4′,5′-bisphosphate) (ammonium salt) (PIP2), 150 mM NaCl, 5 mM (dl-Dithiothreitol) DTT, and 25 mM Tris/HCl (pH 7.5) in 384-well white plates. The kinase reaction is initiated by adding ATP (30 μM) for inhibition studies and by adding PI3Kα for ATP kinetics (0-200 μM ATP).
(§4) PI3K inhibitor (S)-Pyrrolidine-1,2-dicarboxylic acid 2-amide 1-({4-methyl-5-[2-(2,2,2-trifluoro-1,1-dimethyl-ethyl)-pyridin-4-yl]-thiazol-2-yl}-amide) (hereinafter “Compound I”) is diluted successively in Dimethyl sulfoxide (DMSO) and in buffer (final concentration: 2.5% DMSO). The kinase reaction is stopped by addition of the HTRF reagents according to manufacturer's instructions. […] The plate is read using Tecan's GeniosPro® multilabel reader (from Tecan Group Ltd., Männedorf, Switzerland) in time-resolved fluorescence mode (Excitation filter: 340 nm; Emission filter 1: 620 nm; Emission filter 2: 665 nm; Mirror: dichroic2; Lag time: 150 μs; Integration time: 500 μs; 10 flashes).
(§5) The HTRF signal is determined according to the formula: HTRF signal=10000×(emission at 665 nm/emission at 620 nm). […]

PI3Kα wildtype (wt) = target: T2, PI3Kα wildtype (wt) (Bos taurus, UniProt P32871); test: Enzymatic HTRF assay, PI3Kα wild-type
T2 construct: His; made in house; host or cells: Sf9 insect cells (baculovirus co-infection)
T2 sequence (P32871 whole entry): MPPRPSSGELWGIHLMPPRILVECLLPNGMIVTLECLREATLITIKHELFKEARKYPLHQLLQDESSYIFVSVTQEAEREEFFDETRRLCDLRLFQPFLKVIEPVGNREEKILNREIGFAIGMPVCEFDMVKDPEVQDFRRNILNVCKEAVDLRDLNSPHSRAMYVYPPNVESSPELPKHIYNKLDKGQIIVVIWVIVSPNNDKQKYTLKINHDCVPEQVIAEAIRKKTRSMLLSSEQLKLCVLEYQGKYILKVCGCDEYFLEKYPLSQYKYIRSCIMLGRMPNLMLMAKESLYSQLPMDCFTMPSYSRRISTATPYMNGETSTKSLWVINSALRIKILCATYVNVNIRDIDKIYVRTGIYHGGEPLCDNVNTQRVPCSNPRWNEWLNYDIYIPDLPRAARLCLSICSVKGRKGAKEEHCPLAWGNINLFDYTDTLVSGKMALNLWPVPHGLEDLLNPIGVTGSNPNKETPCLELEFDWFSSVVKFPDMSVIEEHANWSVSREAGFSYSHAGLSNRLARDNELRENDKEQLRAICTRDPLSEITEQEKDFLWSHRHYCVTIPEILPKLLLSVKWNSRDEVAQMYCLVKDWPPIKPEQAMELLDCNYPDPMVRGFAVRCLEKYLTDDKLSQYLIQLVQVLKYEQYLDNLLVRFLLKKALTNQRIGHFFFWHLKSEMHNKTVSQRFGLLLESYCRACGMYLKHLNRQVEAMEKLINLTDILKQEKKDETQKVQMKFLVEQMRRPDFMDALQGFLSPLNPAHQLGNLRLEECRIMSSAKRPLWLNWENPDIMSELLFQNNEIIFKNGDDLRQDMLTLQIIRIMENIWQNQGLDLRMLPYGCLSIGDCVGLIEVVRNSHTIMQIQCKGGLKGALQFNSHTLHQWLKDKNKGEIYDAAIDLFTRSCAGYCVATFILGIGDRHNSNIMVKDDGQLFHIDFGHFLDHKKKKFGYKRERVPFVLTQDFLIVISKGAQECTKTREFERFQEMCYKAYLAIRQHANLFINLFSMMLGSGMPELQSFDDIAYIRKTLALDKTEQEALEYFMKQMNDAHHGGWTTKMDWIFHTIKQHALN
T2 sequence (P27986 whole entry partner): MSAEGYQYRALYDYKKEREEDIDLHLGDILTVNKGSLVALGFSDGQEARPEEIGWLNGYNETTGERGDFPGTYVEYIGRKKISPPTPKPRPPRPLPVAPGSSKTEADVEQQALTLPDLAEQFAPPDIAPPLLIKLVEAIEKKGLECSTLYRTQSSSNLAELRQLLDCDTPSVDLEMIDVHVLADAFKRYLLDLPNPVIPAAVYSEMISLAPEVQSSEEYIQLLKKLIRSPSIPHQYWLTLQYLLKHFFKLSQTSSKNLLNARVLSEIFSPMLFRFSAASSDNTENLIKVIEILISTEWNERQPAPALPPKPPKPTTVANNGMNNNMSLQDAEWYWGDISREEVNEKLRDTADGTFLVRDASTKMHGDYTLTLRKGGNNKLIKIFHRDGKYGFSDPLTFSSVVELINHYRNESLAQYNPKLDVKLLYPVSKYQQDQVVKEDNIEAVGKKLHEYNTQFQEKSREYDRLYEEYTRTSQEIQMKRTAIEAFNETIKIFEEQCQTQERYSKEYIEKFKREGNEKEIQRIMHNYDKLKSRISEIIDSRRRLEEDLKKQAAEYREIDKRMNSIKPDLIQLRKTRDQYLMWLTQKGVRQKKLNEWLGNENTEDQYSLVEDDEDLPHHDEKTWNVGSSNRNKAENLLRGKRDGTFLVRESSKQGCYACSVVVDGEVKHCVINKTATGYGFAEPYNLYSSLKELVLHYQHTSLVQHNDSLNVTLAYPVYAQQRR
Source text: as §2, with “Mo., USA). […]” for “Mo., USA).”
PI3K inhibitor (S)-Pyrrolidine-1,2-dicarboxylic acid 2-amide 1-({4-methyl-5-[2-(2,2,2-trifluoro-1,1-dimethyl-ethyl)-pyridin-4-yl]-thiazol-2-yl}-amide) (hereinafter “Compound I”) is diluted successively in Dimethyl sulfoxide (DMSO) and in buffer (final concentration: 2.5% DMSO). […] The plate is read using Tecan's GeniosPro® multilabel reader (from Tecan Group Ltd., Männedorf, Switzerland) in time-resolved fluorescence mode (Excitation filter: 340 nm; Emission filter 1: 620 nm; Emission filter 2: 665 nm; Mirror: dichroic2; Lag time: 150 μs; Integration time: 500 μs; 10 flashes).
as §5

PI3Kα Q859A mutant [2] = test: Enzymatic HTRF assay, PI3Kα Q859A mutant; conditions: IC50 Q859A / IC50 wildtype
Experimental: as §1, §2, §3, §4, §5

T1 sequence (P32871 whole entry Q859A): as the sequence (P32871 whole entry) above, with Q859A counted along it
T1 sequence (P27986 whole entry partner): as the sequence (P27986 whole entry partner) above

| Km (PI3Kα Q859A mutant [1]; PI3Kα Q859A mutant, 0-200 μM ATP, mean ± S.E. of 5 experiments, read-out: Michaelis constant (Km), ATP activation kinetics) [µM] | Km (PI3Kα wildtype (wt); PI3K wild-type, 0-200 μM ATP, mean ± S.E. of 14 experiments, read-out: Michaelis constant (Km), ATP activation kinetics) [µM] | fold increase in the IC50, Q859A mutant versus wildtype (PI3Kα Q859A mutant [2]) [fold] | IC50 (PI3Kα Q859A mutant [1]; PI3Kα Q859A mutant p110α/p85α, 30 μM ATP, 20 μM PIP2, 60 min, mean ± S.E. of 7 experiments) [nM] | IC50 (PI3Kα wildtype (wt); PI3Kα wild-type p110α/p85α, 30 μM ATP, 20 μM PIP2, 60 min, mean ± S.E. of 10 experiments) [nM] | Structure (SMILES) |
| --- | --- | --- | --- | --- | --- |
| 72 ± 8 | 60 ± 6 |  |  |  | Nc1ncnc2c1ncn2[C@@H]1O[C@H](COP(=O)(O)OP(=O)(O)OP(=O)(O)O)[C@@H](O)[C@H]1O [ATP, reference compound] |
|  |  | 14.5 | 122 ± 28 | 8.4 ± 1 | Cc1nc(NC(=O)N2CCC[C@H]2C(N)=O)sc1-c1ccnc(C(C)(C)C(F)(F)F)c1 [Compound I, (S)-Pyrrolidine-1,2-dicarboxylic acid 2-amide 1-({4-methyl-5-[2-(2,2,2-trifluoro-1,1-dimethyl-ethyl)-pyridin-4-yl]-thiazol-2-yl}-amide)] |
